Results published in patent US6972296B2, “Carboxylic acid derivatives that inhibit the binding of integrins to their receptors” (Encysive Pharmaceuticals Inc., priority 1999, dated 2005).
pIC50: −log10 of the molar value.

What was measured:
α4β1 integrin = molecular target: T1, α4β1 integrin (Homo sapiens, UniProt P05556+P13612); experiment: Adhesion of calcein-labeled Ramos cells to CS1 (fibronectin) peptide conjugated ovalbumin; assay type: cell-based; conditions: Ramos cell adhesion to CS1 conjugated ovalbumin, 30 minutes at 37° C.
T1 construct: endogenous in cells; host or cells: Ramos cells
T1 sequence (P13612 34-1032): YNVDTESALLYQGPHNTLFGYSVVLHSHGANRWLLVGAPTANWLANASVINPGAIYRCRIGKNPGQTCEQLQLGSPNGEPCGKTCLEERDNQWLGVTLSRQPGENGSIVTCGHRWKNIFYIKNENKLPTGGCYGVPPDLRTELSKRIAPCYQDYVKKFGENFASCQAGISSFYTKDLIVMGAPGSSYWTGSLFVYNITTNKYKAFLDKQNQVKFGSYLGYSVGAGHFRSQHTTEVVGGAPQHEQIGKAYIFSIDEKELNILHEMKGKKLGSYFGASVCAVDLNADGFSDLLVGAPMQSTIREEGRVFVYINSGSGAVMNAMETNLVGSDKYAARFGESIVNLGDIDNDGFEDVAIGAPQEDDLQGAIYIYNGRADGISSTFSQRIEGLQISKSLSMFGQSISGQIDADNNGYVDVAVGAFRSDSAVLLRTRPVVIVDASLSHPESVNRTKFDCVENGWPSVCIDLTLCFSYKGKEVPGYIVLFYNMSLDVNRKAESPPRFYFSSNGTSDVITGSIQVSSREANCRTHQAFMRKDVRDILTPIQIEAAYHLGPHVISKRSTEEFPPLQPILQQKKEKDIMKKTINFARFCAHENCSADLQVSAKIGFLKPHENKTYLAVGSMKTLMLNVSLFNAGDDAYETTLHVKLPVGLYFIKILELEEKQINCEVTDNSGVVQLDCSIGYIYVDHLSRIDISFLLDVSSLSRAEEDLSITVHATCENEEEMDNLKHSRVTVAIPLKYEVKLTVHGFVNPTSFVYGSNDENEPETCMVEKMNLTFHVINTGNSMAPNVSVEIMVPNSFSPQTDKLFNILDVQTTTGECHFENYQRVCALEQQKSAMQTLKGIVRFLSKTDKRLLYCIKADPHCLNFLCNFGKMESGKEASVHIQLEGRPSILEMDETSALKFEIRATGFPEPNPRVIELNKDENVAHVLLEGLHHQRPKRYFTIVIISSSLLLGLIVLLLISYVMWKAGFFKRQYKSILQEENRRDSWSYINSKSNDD
T1 sequence (P05556 21-798): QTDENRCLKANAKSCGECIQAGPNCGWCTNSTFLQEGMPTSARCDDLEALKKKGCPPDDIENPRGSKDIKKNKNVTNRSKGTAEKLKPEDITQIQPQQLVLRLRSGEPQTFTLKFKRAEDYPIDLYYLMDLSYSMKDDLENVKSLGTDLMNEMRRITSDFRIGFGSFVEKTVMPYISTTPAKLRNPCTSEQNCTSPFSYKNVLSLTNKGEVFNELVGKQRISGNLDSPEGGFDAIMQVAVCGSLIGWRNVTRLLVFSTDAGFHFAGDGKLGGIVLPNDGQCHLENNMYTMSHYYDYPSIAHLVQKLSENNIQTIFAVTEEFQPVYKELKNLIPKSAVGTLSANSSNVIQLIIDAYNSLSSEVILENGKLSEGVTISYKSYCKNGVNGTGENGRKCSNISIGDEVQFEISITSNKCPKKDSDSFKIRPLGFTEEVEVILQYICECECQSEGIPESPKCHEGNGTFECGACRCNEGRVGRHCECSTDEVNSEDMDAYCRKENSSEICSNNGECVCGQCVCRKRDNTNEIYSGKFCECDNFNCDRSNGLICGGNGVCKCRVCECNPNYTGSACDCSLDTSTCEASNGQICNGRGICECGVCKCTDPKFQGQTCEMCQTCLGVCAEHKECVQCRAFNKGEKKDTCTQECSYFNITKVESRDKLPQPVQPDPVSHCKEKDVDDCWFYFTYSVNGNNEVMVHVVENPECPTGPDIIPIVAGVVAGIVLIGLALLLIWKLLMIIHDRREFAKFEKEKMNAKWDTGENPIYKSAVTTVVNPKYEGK
Method in brief: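 Plates bearing CS1 fibronectin peptide coupled to ovalbumin (0.5 μg/ml coat, 3% BSA block) received calcein-labelled Ramos cells plus compound (100 μM stated) for 30 min at 37 °C. Buffer was TBS pH 7.5 with 1 mM Mg2+, Ca2+, Mn2+; bound cells quantified by fluorescence after lysis; […].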

pIC50 (α4β1 integrin; Table 4)	melting point	pIC50 (α4β1 integrin; Table 3)	Compound
	124 to 126 °C	8.30	Cc1ccc([C@H](CC(=O)O)NC(=O)Nc2c(OCc3ccccc3)cc(C)n(Cc3ccccc3)c2=O)cc1 [(3S)-3-{[({6-methyl-2-oxo-1-(phenylmethyl)-4-[(phenylmethyl)oxy]-1,2-dihydro-3-pyridinyl}amino)carbonyl]amino}-3-(4-methylphenyl)propanoic acid]
	134 to 136 °C	8.10	Cc1ccc([C@H](CC(=O)O)NC(=O)Nc2c(O)c3ccccc3n(Cc3ccccc3Cl)c2=O)cc1 [(3S)-3-{[({1-[(2-chlorophenyl)methyl]-4-hydroxy-2-oxo-1,2-dihydro-3-quinolinyl}amino)carbonyl]amino}-3-(4-methylphenyl)propanoic acid]

The remaining lines, values behind:

Compound	pIC50 (α4β1 integrin; Table 4)	melting point	pIC50 (α4β1 integrin; Table 3)
CCCCN(C(=O)N[C@@H](CC(=O)O)c1ccc2c(c1)OCO2)C1CC(=O)N(Cc2ccccc2)C1=O (stereo partly drawn) [(3S)-3-(1,3-benzodioxol-5-yl)-3-[({butyl[2,5-dioxo-1-(phenylmethyl)tetrahydro-1H-pyrrol-3-yl]amino}carbonyl)amino]propanoic acid]	4.15	80 to 85 °C	
CCNC(=O)N(CC)C(=O)Nc1ccn(Cc2ccccc2Cl)c(=O)c1NC(=O)N[C@@H](CC(=O)O)c1ccc(C)cc1 [(3S)-3-{[({1-[(2-chlorophenyl)methyl]-4-[({ethyl[(ethylamino)carbonyl]amino}carbonyl)amino]-2-oxo-1,2-dihydro-3-pyridinyl}amino)carbonyl]amino}-3-(4-methylphenyl)propanoic acid]		128 to 130 °C	8.70
Cc1ccc([C@H](CC(=O)O)NC(=O)Nc2c(O)ccn(Cc3ccccc3Cl)c2=O)cc1 [(3S)-3-{[({1-[(2-chlorophenyl)methyl]-4-hydroxy-2-oxo-1,2-dihydro-3-pyridinyl}amino)carbonyl]amino}-3-(4-methylphenyl)propanoic acid]		113 to 115 °C	8.00
